These results are taken from PubChem BioAssay (NCI).

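96-well plates; 48 h exposure; 5 concentrations. Endpoints by linear interpolation between flanking doses. Not reached: highest tested concentration assigned. GI50: concentration for 50% inhibition of growth. At the TGI there is no net growth.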

What all share (assay): DTP human tumour cell line panel, 48 h
Assay [1] concerns SNB-19 CNS.
The test system of assay [2] is SF-295 CNS.
In assay [3] the test system is IGROV1 ovarian.
Assay [4] relates to ACHN renal.
Assay [5] concerns SF-539 CNS.
Assay [6] concerns HCT-116 colon.
Assay [7] concerns HT29 colon.
Assay [8] has as its system NCI-H460 lung.
The test system of assay [9] is KM12 colon.
Assay [10] concerns MALME-3M melanoma.

`C#CC1(O)CCC2C3CCc4cc(Oc5nc(F)nc(-c6c7ccccc7c7n6CCS7)n5)ccc4C3CC[C@@]21C` (stereo partly drawn): the TGI (usually the concentration giving total growth inhibition) was 70600 nM in assay [1]; 30100 nM in assay [2]; above 100000 nM in assay [3]; above 100000 nM in assay [4]; 33000 nM in [5]; 25800 nM in assay [6]. Also, the TGI is 73700 nM in assay [7], above 100000 nM in assay [8], 28300 nM in assay [9] and above 100000 nM in assay [10].
Turning to `C/C(=C\c1ccn(-c2ccccc2N)n1)[C@@H]1C[C@@H]2O[C@]2(C)CCC[C@H](C)[C@H](O)[C@@H](C)C(=O)C(C)(C)[C@@H](O)CC(=O)O1`, the GI50 (in general, the concentration that inhibits growth by half) is 184 nM in [1]; 79.7 nM in assay [2]; 247 nM in assay [3]; 283 nM in assay [4]; 33.4 nM in assay [5]; 19.1 nM in assay [6]. Besides, the concentration for 50% growth inhibition (GI50) in assay [7] is 20.6 nM; in [8], 20.1 nM; in [9], 20.3 nM; in assay [10], 127 nM. In addition, the TGI in [1] was above 50000 nM; in [2] it was above 50000 nM; in assay [3], above 50000 nM; in [4], above 50000 nM; in [5] it was 236 nM; in [6], above 50000 nM. For the same compound, the TGI in assay [7], in [8], in assay [9] and in assay [10] was above 50000 nM throughout.
On to `COc1ccc(/C=C(/c2ccccc2)[N+](=O)[O-])c(OC)c1`, for which the GI50 is 1650 nM in assay [1]; 1970 nM in assay [2]; 1470 nM in [3]; 1490 nM in assay [4]; 1580 nM in [5]; 1020 nM in assay [6]. Also, the GI50 in [7] was 2880 nM; in [8], 1870 nM; in [9] it was 1720 nM; in assay [10] it was 1580 nM. For the same compound, the TGI came out at 3050 nM in assay [1]; 3860 nM in assay [2]; 2950 nM in assay [3]; 2810 nM in [4]; 2940 nM in [5]; 2290 nM in assay [6]. Moreover, the concentration for total growth inhibition (TGI) in assay [7] turned out to be 10300 nM; in [8], 3870 nM; in assay [9], 3310 nM; in assay [10], 3300 nM.
In the case of `CC(C)/C=C1\CCC(CN2CCOCC2)C1=O` (stereo not drawn), the TGI was above 100000 nM in assay [1]; above 77700 nM in assay [2]; 20800 nM in [3]; 32300 nM in assay [4]; 29300 nM in [5]; 23400 nM in [6]. Besides, the TGI is 15400 nM in [7], above 60700 nM in [8], 23600 nM in [9] and 31000 nM in assay [10].
In the case of `Oc1c(C(Nc2ccccc2Br)c2ccccc2)ccc2cccnc12` (stereo not drawn), the GI50 in assay [1] is 2330 nM; in assay [2], 1650 nM; in [3] it was 3470 nM; in assay [4], 2040 nM; in [5] it was 3650 nM; in assay [6], 3130 nM. The GI50 is 3850 nM in assay [7], 722 nM in assay [8], 2470 nM in assay [9] and 4420 nM in assay [10]. Also, the TGI in assay [1] was above 100000 nM; in [2], 47300 nM; in assay [3], 22900 nM; in assay [4], above 100000 nM; in assay [5], 13500 nM; in assay [6], 18000 nM. In addition, the TGI was 84300 nM in [7], 11700 nM in assay [8], above 100000 nM in [9] and 29200 nM in [10].
As for `O=C1CCc2c(sc3[nH]c(=S)n(-c4cc(C(F)(F)F)cc(C(F)(F)F)c4)c(=O)c23)C1`, the GI50 in [1] was 384 nM; in assay [2], 318 nM; in assay [3] it was 446 nM; in assay [4], 344 nM; in assay [5], 362 nM; in [6], 341 nM. In addition, the GI50 in [7] is 939 nM; in [8] it was 353 nM; in [9], 344 nM; in assay [10] it was 462 nM. In addition, the TGI in assay [1] was above 37000 nM; in assay [2], 1100 nM; in [3], 3440 nM; in assay [4], 1310 nM; in [5], 1700 nM; in [6], 2540 nM. For the same compound, the TGI in assay [7] is above 33600 nM; in [8], 2030 nM; in assay [9], 1360 nM; in [10] it was 2770 nM.
As for `COC(=O)c1cc(-c2ccccc2)[nH]c1N/N=C/c1c(Cl)cccc1Cl`, the GI50 is 435 nM in [1]; 195 nM in assay [2]; 412 nM in assay [3]; 858 nM in assay [4]; 218 nM in [5]; 318 nM in assay [6]. Besides, the concentration for 50% growth inhibition (GI50) in assay [7] was 350 nM; in assay [8], 319 nM; in [9] it was 274 nM; in assay [10] it was 340 nM. Besides, the TGI in [1] was 15300 nM; in [2], 920 nM; in [4], 26400 nM; in [5] it was 605 nM; in [6] it was 1710 nM; in assay [8], 1250 nM. The figures for the TGI in assay [9] and in assay [10] were 1570 nM and 6670 nM, respectively.
On to `Cc1cc(N(CCC#N)S(=O)(=O)c2ccccc2)ccc1/C=C1\N=C(c2ccc(Cl)cc2)OC1=O`, for which the TGI in assay [1], in assay [2], in assay [3], in assay [4], in assay [5] and in assay [6] was above 100000 nM in each case. Besides, the concentration for total growth inhibition (TGI) in assay [7], in assay [8], in assay [9] and in assay [10] was above 100000 nM throughout.
Turning to `Nc1ccn(C2CC(F)C(CO)O2)c(=O)n1` (stereo not drawn), the GI50 in assay [1], in [2], in [3], in assay [4], in assay [5] and in [6] was above 100000 nM throughout. Also, the GI50 in assay [7], in assay [8], in assay [9] and in [10] was above 100000 nM in each case. The TGI in [1], in [2], in [3], in [4], in assay [5] and in assay [6] was above 100000 nM throughout. The total growth inhibition concentration (TGI) in assay [7], in [8], in assay [9] and in assay [10] was above 100000 nM throughout.
